Assay results published in ChEMBL document CHEMBL4831513, “Discovery of quinazoline derivatives as a novel class of potent and in vivo efficacious LSD1 inhibitors by drug repurposing” (Eur J Med Chem, 2021).
pIC50: −log10 of the molar value.

Target: Lysine-specific histone demethylase 1A (Homo sapiens, UniProt O60341)
Description: Inhibition of recombinant full length LSD1 (unknown origin) transfected in Escherichia coli BL21 (DE) using H3K4me2 as substrate by flourescence based analysis

pIC50 | Compound
< 4.30 | C#Cc1cccc(Nc2ncnc3cc(OC)c(OC)cc23)c1
< 4.30 | COCCOc1cc2ncnc(Sc3ccccn3)c2cc1OCCOC
< 4.30 | C#Cc1cccc(Nc2ncnc3ccccc23)c1
< 4.30 | COCCOc1cc2ncnc(Oc3cccc(Cl)c3)c2cc1OCCOC
< 4.30 | C#Cc1cccc(Nc2ncnc3ccc(Br)cc23)c1
< 4.30 | COCCOc1cc2ncnc(Sc3nnnn3C)c2cc1OCCOC

More lines, now with the values behind:

Compound | pIC50
COCCOc1cc2ncnc(Sc3ccc(Cl)cc3)c2cc1OCCOC | < 4.30
COCCOc1cc2ncnc(Sc3ccc(C)cc3)c2cc1OCCOC | < 4.30
COCCOc1cc2ncnc(Nc3ccc(Br)cc3)c2cc1OCCOC | < 4.30
COCCOc1cc2ncnc(Sc3nnnn3-c3ccccc3)c2cc1OCCOC | < 4.30
